Test results published in patent publication US12077503B2, “Substituted cyclic amides and their use as herbicides” (FMC CORPORATION, priority 2015, dated 2024).

Legend:
Format in all cases: in vivo
[1] = test system: barnyardgrass (Echinochloa crus-galli); assay: Test G Pre-Emergence Protocol; settings: Echinochloa crus-galli, pre-emergence, 312 h, evaluated after 13 days; for pest or weed control at 15.625 g/ha: 15.625 g ai/ha; for pest or weed control at 15.625 g/ha / pest or weed control at 250 g/ha: read-out: Barnyardgrass damage rating (100=total damage to plant; 0=no damage to plant); for pest or weed control at 62.5 g/ha: 62.5 g ai/ha, 100=total damage to plant, 0=no damage to plant, read-out: Barnyardgrass damage rating; for pest or weed control at 250 g/ha: 250 g ai/ha
Summary of the method: (§1)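 Visual injury (0–100) at day 13 after a single pre-emergence spray. Rates: 15.625, 62.5, 250 g/ha in acetone–water 50:50 with 0.5% Tween 20. Growth conditions: 24/16° C, 14 h light, 65% humidity.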

[2] = test system: velvetleaf (Abutilon theophrasti); assay: Test G Pre-Emergence Protocol; settings: Abutilon theophrasti, pre-emergence, 312 h, evaluated after 13 days; for pest or weed control at 15.625 g/ha: 15.625 g ai/ha; for pest or weed control at 15.625 g/ha / pest or weed control at 250 g/ha: read-out: Velvetleaf damage rating (100=total damage to plant; 0=no damage to plant); for pest or weed control at 62.5 g/ha: 62.5 g ai/ha, 100=total damage to plant, 0=no damage to plant, read-out: Velvetleaf damage rating; for pest or weed control at 250 g/ha: 250 g ai/ha
Summary of the method: as §1

[3] = test system: redroot pigweed (Amaranthus retroflexus); assay: Test G Pre-Emergence Protocol; settings: Amaranthus retroflexus, pre-emergence, 312 h, evaluated after 13 days; for pest or weed control at 15.625 g/ha: 15.625 g ai/ha; for pest or weed control at 15.625 g/ha / pest or weed control at 250 g/ha: read-out: Pigweed, Redroot damage rating (100=total damage to plant; 0=no damage to plant); for pest or weed control at 62.5 g/ha: 62.5 g ai/ha, 100=total damage to plant, 0=no damage to plant, read-out: Pigweed, Redroot damage rating; for pest or weed control at 250 g/ha: 250 g ai/ha
Summary of the method: as §1

[4] = test system: ivy-leaved morning glory (Ipomoea hederacea); assay: Test G Pre-Emergence Protocol; settings: Ipomoea, pre-emergence, 312 h, evaluated after 13 days; for pest or weed control at 15.625 g/ha: 15.625 g ai/ha; for pest or weed control at 15.625 g/ha / pest or weed control at 250 g/ha: read-out: Morningglory, Ivy-leaved damage rating (100=total damage to plant; 0=no damage to plant); for pest or weed control at 62.5 g/ha: 62.5 g ai/ha, 100=total damage to plant, 0=no damage to plant, read-out: Morningglory, Ivy-leaved damage rating; for pest or weed control at 250 g/ha: 250 g ai/ha
Summary of the method: as §1

[5] = test system: corn (Zea mays); assay: Test G Pre-Emergence Protocol; settings: Zea mays, pre-emergence, 312 h, evaluated after 13 days; for plant injury at 15.625 g/ha: 15.625 g ai/ha; for plant injury at 15.625 g/ha / plant injury at 250 g/ha: read-out: Corn damage rating (100=total damage to plant; 0=no damage to plant); for plant injury at 62.5 g/ha: 62.5 g ai/ha, 100=total damage to plant, 0=no damage to plant, read-out: Corn damage rating; for plant injury at 250 g/ha: 250 g ai/ha
Summary of the method: as §1

[6] = test system: giant foxtail (Setaria faberi); assay: Test G Pre-Emergence Protocol; settings: Setaria faberi, pre-emergence, 312 h, evaluated after 13 days; for pest or weed control at 15.625 g/ha: 15.625 g ai/ha; for pest or weed control at 15.625 g/ha / pest or weed control at 250 g/ha: read-out: Foxtail, Giant damage rating (100=total damage to plant; 0=no damage to plant); for pest or weed control at 62.5 g/ha: 62.5 g ai/ha, 100=total damage to plant, 0=no damage to plant, read-out: Foxtail, Giant damage rating; for pest or weed control at 250 g/ha: 250 g ai/ha
Summary of the method: as §1

[7] = test system: barnyardgrass (Echinochloa crus-galli); assay: Test G Post-Emergence Protocol; settings: Echinochloa crus-galli, post-emergence, 312 h, read-out: Barnyardgrass damage rating; for pest or weed control at 15.625 g/ha: 15.625 g ai/ha, evaluated after 13 days (100=total damage to plant; 0=no damage to plant); for pest or weed control at 62.5 g/ha: 62.5 g ai/ha; for pest or weed control at 62.5 g/ha / pest or weed control at 250 g/ha: evaluated after 13 days, 100=total damage to plant, 0=no damage to plant; for pest or weed control at 250 g/ha: 250 g ai/ha
Summary of the method: (§2)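 Foliar application was made 8 days after sowing, using an aqueous spray of the active in acetone/water (50:50) with 0.5% Tween 20, at doses of 15.625, 62.5 or 250 g/ha. Injury was assessed 13 days later, where 100 meant the plant was fully damaged.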

[8] = test system: velvetleaf (Abutilon theophrasti); assay: Test G Post-Emergence Protocol; settings: Abutilon theophrasti, post-emergence, 312 h, read-out: Velvetleaf damage rating; for pest or weed control at 15.625 g/ha: 15.625 g ai/ha, evaluated after 13 days (100=total damage to plant; 0=no damage to plant); for pest or weed control at 62.5 g/ha: 62.5 g ai/ha; for pest or weed control at 62.5 g/ha / pest or weed control at 250 g/ha: evaluated after 13 days, 100=total damage to plant, 0=no damage to plant; for pest or weed control at 250 g/ha: 250 g ai/ha
Summary of the method: as §2

[9] = test system: redroot pigweed (Amaranthus retroflexus); assay: Test G Post-Emergence Protocol; settings: Amaranthus retroflexus, post-emergence, 312 h, read-out: Pigweed, Redroot damage rating; for pest or weed control at 15.625 g/ha: 15.625 g ai/ha, evaluated after 13 days (100=total damage to plant; 0=no damage to plant); for pest or weed control at 62.5 g/ha: 62.5 g ai/ha; for pest or weed control at 62.5 g/ha / pest or weed control at 250 g/ha: evaluated after 13 days, 100=total damage to plant, 0=no damage to plant; for pest or weed control at 250 g/ha: 250 g ai/ha
Summary of the method: as §2

[10] = test system: ivy-leaved morning glory (Ipomoea hederacea); assay: Test G Post-Emergence Protocol; settings: Ipomoea, post-emergence, 312 h, read-out: Morningglory, Ivy-leaved damage rating; for pest or weed control at 15.625 g/ha: 15.625 g ai/ha, evaluated after 13 days (100=total damage to plant; 0=no damage to plant); for pest or weed control at 62.5 g/ha: 62.5 g ai/ha; for pest or weed control at 62.5 g/ha / pest or weed control at 250 g/ha: evaluated after 13 days, 100=total damage to plant, 0=no damage to plant; for pest or weed control at 250 g/ha: 250 g ai/ha
Summary of the method: as §2

[11] = test system: corn (Zea mays); assay: Test G Post-Emergence Protocol; settings: Zea mays, post-emergence, 312 h, read-out: Corn damage rating; for plant injury at 15.625 g/ha: 15.625 g ai/ha, evaluated after 13 days (100=total damage to plant; 0=no damage to plant); for plant injury at 62.5 g/ha: 62.5 g ai/ha; for plant injury at 62.5 g/ha / plant injury at 250 g/ha: evaluated after 13 days, 100=total damage to plant, 0=no damage to plant; for plant injury at 250 g/ha: 250 g ai/ha
Summary of the method: as §2

[12] = test system: giant foxtail (Setaria faberi); assay: Test G Post-Emergence Protocol; settings: Setaria faberi, post-emergence, 312 h, read-out: Foxtail, Giant damage rating; for pest or weed control at 15.625 g/ha: 15.625 g ai/ha, evaluated after 13 days (100=total damage to plant; 0=no damage to plant); for pest or weed control at 62.5 g/ha: 62.5 g ai/ha; for pest or weed control at 62.5 g/ha / pest or weed control at 250 g/ha: evaluated after 13 days, 100=total damage to plant, 0=no damage to plant; for pest or weed control at 250 g/ha: 250 g ai/ha
Summary of the method: as §2

SMILES | pest or weed control at 15.625 g/ha [1] [%] | pest or weed control at 62.5 g/ha [1] [%] | pest or weed control at 250 g/ha [1] [%] | pest or weed control at 15.625 g/ha [2] [%] | pest or weed control at 62.5 g/ha [2] [%] | pest or weed control at 250 g/ha [2] [%] | pest or weed control at 15.625 g/ha [3] [%] | pest or weed control at 62.5 g/ha [3] [%] | pest or weed control at 250 g/ha [3] [%] | pest or weed control at 15.625 g/ha [4] [%] | pest or weed control at 62.5 g/ha [4] [%] | pest or weed control at 250 g/ha [4] [%] | plant injury at 15.625 g/ha [5] [%] | plant injury at 62.5 g/ha [5] [%] | plant injury at 250 g/ha [5] [%] | pest or weed control at 15.625 g/ha [6] [%] | pest or weed control at 62.5 g/ha [6] [%] | pest or weed control at 250 g/ha [6] [%] | pest or weed control at 15.625 g/ha [7] [%] | pest or weed control at 62.5 g/ha [7] [%] | also measured
COc1cc(C2CN(C)C(=O)C2C(=O)Nc2cccc(F)c2F)cc(C(F)(F)F)c1F (centres unmarked) [Compound 1701] | 0 | 30 | 70 | 0 | 0 | 0 | 0 | 0 | 10 | 0 | 20 | 20 | 0 | 0 | 30 | 40 | 80 | 90 | 10 | 60 | pest or weed control at 250 g/ha [7]: 70%; pest or weed control at 15.625 g/ha [8]: 0%; pest or weed control at 62.5 g/ha [8]: 0%; pest or weed control at 250 g/ha [8]: 0%; pest or weed control at 15.625 g/ha [9]: 0%; pest or weed control at 62.5 g/ha [9]: 0%; pest or weed control at 250 g/ha [9]: 30%; pest or weed control at 15.625 g/ha [10]: 0%; pest or weed control at 62.5 g/ha [10]: 0%; pest or weed control at 250 g/ha [10]: 30%; plant injury at 15.625 g/ha [11]: 10%; plant injury at 62.5 g/ha [11]: 30%; plant injury at 250 g/ha [11]: 50%; pest or weed control at 15.625 g/ha [12]: 40%; pest or weed control at 62.5 g/ha [12]: 60%; pest or weed control at 250 g/ha [12]: 60%
CN1CC(c2cc(C#N)cc(C(F)(F)F)c2)C(C(=O)Nc2cccc(F)c2F)C1=O (centres unmarked) [Compound 1684] | 0 | 0 | 0 | 0 | 0 | 0 | 0 | 0 | 10 | 0 | 0 | 0 | 0 | 0 | 10 | 0 | 0 | 0 | 0 | 0 | pest or weed control at 250 g/ha [7]: 0%; pest or weed control at 15.625 g/ha [8]: 0%; pest or weed control at 62.5 g/ha [8]: 0%; pest or weed control at 250 g/ha [8]: 0%; pest or weed control at 15.625 g/ha [9]: 0%; pest or weed control at 62.5 g/ha [9]: 0%; pest or weed control at 250 g/ha [9]: 0%; pest or weed control at 15.625 g/ha [10]: 0%; pest or weed control at 62.5 g/ha [10]: 0%; pest or weed control at 250 g/ha [10]: 0%; plant injury at 15.625 g/ha [11]: 0%; plant injury at 62.5 g/ha [11]: 0%; plant injury at 250 g/ha [11]: 0%; pest or weed control at 15.625 g/ha [12]: 0%; pest or weed control at 62.5 g/ha [12]: 0%
Cc1cc(F)ncc1NC(=O)[C@H]1C(=O)N(C)C[C@@H]1c1ccc(C(F)(F)F)cc1 (racemic) [Compound 1733] | 0 | 20 | 70 | 0 | 50 | 80 | 0 | 70 | 80 | 0 | 20 | 80 | 0 | 20 | 80 | 10 | 80 | 90 | 0 | 0 | pest or weed control at 250 g/ha [7]: 80%; pest or weed control at 15.625 g/ha [8]: 0%; pest or weed control at 62.5 g/ha [8]: 40%; pest or weed control at 250 g/ha [8]: 80%; pest or weed control at 15.625 g/ha [9]: 10%; pest or weed control at 62.5 g/ha [9]: 20%; pest or weed control at 250 g/ha [9]: 80%; pest or weed control at 15.625 g/ha [10]: 20%; pest or weed control at 62.5 g/ha [10]: 60%; pest or weed control at 250 g/ha [10]: 70%; plant injury at 15.625 g/ha [11]: 0%; plant injury at 62.5 g/ha [11]: 50%; plant injury at 250 g/ha [11]: 70%; pest or weed control at 15.625 g/ha [12]: 10%; pest or weed control at 62.5 g/ha [12]: 80%; pest or weed control at 250 g/ha [12]: 80%
